In patent publication US8921362B2, “6,7-dialkoxy quinazoline derivatives and methods of treating drug resistant and other tumors” (Natco Pharma Limited, priority 2008, dated 2014):
Counter-ions that a name gives are not always drawn. Like-named read-outs stand apart in the source and are kept apart here.

What was measured:
[1] = Acute toxicity (LD0, LD50); format: in vivo; conditions: po, mice, single dose
Experimental: […]. The doses 500, 750, 1000 and 2000 mg/Kg were administered orally. Each group included 5 mice. […] The survived animals were autopsied for asserting the absorption of compound through g.i.t. The LD50 was determined according to the method described in Litchfield and Wilcoxon (J. Pharmacol. Exp. Ther. 1949, 96:99-113).

H1299 and A549 cells = test: Matrigel invasion assay; format: cell-based, human; conditions: 48 hr treatment, FIG. 2
Experimental: The in vitro invasiveness of H1299 and A549 cells in the presence of various concentrations of NRC compounds (as determined by MTT assay) was assessed using a modified Boyden chamber assay. Cells were treated with these compounds for 48 hr. 1×10^6 cells were suspended in 600 μl of serum-free medium supplemented with 0.2% BSA and placed in the upper compartment of the transwell chambers (Corning Costar Fisher Scientific cat #07-200-158, Pittsburgh Pa.) coated with matrigel (0.7 mg/ml). The lower compartment of the chamber was filled with 200 μl of serum medium and the cells were allowed to migrate for 24 hr. After incubation, the cells were fixed and stained with Hema-3 and quantified as previously described (Mohanam et al. 1993). The migrated cells were quantified as percent invasion.

A549 human lung tumors = test: Subcutaneous lung tumors in nude mice; format: in vivo; conditions: 100 mg/Kg dose
Source text: Nude mice were implanted with 2×10^6 A549 cells in the right hind limb flank.

[2] = system: A549 luciferase expressing cells; test: Lung tissue harvested from nude mice after treatment; format: in vivo; conditions: oral/ip routes, various concentrations, FIG. 4
[3] = system: A549 luciferase expressing cells; test: Nude mice implanted with A549 luciferase expressing cells; format: in vivo; conditions: oral and ip routes, FIGS. 6 & 7
VEGFR = test: Down regulation of receptors, western blot in A549 cells; format: cell-based, human; conditions: FIG. 8
Experimental: (§1) Levels of Erb-1, Erb-2, Erb-3, Erb-4 and VEGFR were determined by western blot analysis.

[4] = 30 day repeated dose study; conditions: both sexes, dog, in vivo, po, beagle dogs, orally by capsule, read-out: no observed adverse effect level (NOAEL)
Experimental: The methods followed were as per CPMP/SWP/1042/99 (July 2000) and ICH S3A (March (1995)) guidelines. Prior to the 30 day repeated dose study, a dose range finding study was conducted, which included single dose MTD study followed by a 10 day repeated dose study. For the single dose MTD study, two dogs (1 male and 1 female) of beagle breed, obtained from Marshall's Farm, China, were used. The route of dosing was oral, by gelatin capsule. Based on the results of the dose range finding study, doses for the 30 days study were selected.
The 30 day repeated dose study employed 12 male and 12 female dogs (Marshall's Farm, China). The dogs were acclimatized for a minimum period of 2 weeks and randomly divided into four main groups (G1-G4), each group comprising of 3 dogs per sex. […]
(§2) The study also tracked body weight (weekly), food consumption (daily), opthalmological status (start and end), hematological and biochemical analyses (start and end), toxicokinetics analysis of plasma (start and end). At the end of the study, all dogs were euthanized by a humane and accepted procedure, subjected to a gross post-mortem examination, organ weights (absolute and relative) were determined, and histopathological examination was carried out.

[5] = po, Swiss Albino mice, suspended in 2% gum acacia
in vivo [6] = conditions: both, Swiss albino, mouse, po
[7] = Acute oral gavage toxicity (MTD)
Experimental: (§3) 20 male and 20 female Swiss albino mice were randomly divided into four groups (G1-G4). Each group was 5 male and 5 female Swiss albino mice. […] G1 was treated with placebo and served as a control. […] The mid dose group animals (G3-treated with 500 mg/kg b.wt) were administered the dose formulation twice with a gap of approximately 1 hour. Animals from high dose group (G4-treated with 1000 mg/kg b.wt) received the dose formulation four times with a gap of approximately one hour.

ERBB2 = ERBB2 (Homo sapiens, UniProt P04626); test: Down regulation of receptors, western blot in A549 cells; format: cell-based; design: endogenous in cells; host or cells: A549; conditions: FIG. 8
Experimental: as §1

ERBB4 = ERBB4 (Homo sapiens, UniProt Q15303); test: as above; format: cell-based; design: endogenous in cells; host or cells: A549; conditions: FIG. 8
Experimental: as §1

[8] = Toxicokinetics in 30 day repeated dose study; format: in vivo, beagle dogs; conditions: for Tmax: beagle, dog, plasma, po, read-out: median Tmax
Experimental: The 30 day repeated dose study employed 12 male and 12 female dogs (Marshall's Farm, China). The dogs were acclimatized for a minimum period of 2 weeks and randomly divided into four main groups (G1-G4), each group comprising of 3 dogs per sex. The animals were dosed orally with capsules of NRC-2694A for a period of 30 consecutive days at dose levels of 10 mg/kg b.wt/day (G2-low dose), 20 mg/kg b.wt/day (G3-mid dose) and 40 mg/kg b. wt/day (G4-high dose). […] The control group (G1-0 mg/kg b. wt/day) animals were dosed by oral capsule with placebo.
as §2
The toxicokinetic parameters viz.

[9] = system: Salmonella typhimurium (TA 98, TA 100, TA 102, TA 1535 and TA 1537); test: Ames bacterial reverse mutation assay; format: cell-based; conditions: 0.0125-1.2500 mg/plate, with and without S9
Experimental: The present study was conducted by the direct plate incorporation method with five tester strains of Salmonella typhimurium (TA 98, TA 100, TA 102, TA 1535 and TA 1537). […] Simultaneously, negative control cultures received DMSO and the respective positive controls received the mutagens 2-Amino anthracene, 2-Nitrofluorene, Sodium azide, 9-Aminoacridine and Mitomycin C (Sigma, St. Louis). In order to study the role of metabolic activation, cultures were incubated both with and without S9 mixture. The induction of Histidine positive colonies was computed and results were statistically treated for comparison.

[10] = Functional observational battery (FOB); format: in vivo, Wistar rats; conditions: 75, 125 and 250 mg/kg b.wt single oral dose, 60-120 min post treatment
Experimental: The study was conducted in accordance with “[…] Safety Pharmacology Studies for Human Pharmaceuticals, ICH” July 2001, and as per this study protocol. […] Rats that had been fasted for 16 to 18 hours (access to water was not interrupted) were dosed with the compound or water. The rats were administered the compound in an aqueous formulation at three levels, 75, 125 and 250 mg/kg b.wt, as a single oral dose by gavage. The control group received water. The rats were subjected to the FOB 60-120 min. after drug administration.
Animals were subjected to the FOB one at a time except for the multiple activity cage where four animals were placed in four different cages simultaneously. Once complete, the animals were returned to their home cage and the cage placed back on the stand.

[11] = Respiratory function, whole body plethysmograph; format: in vivo, Wistar rats; conditions: 75, 125 and 250 mg/kg body weight, oral, 3 hours
Experimental: This study evaluated the effect of NRC-2694A monohydrochloride on respiratory function in conscious Wistar rats following administration of a single dose using a whole body plethysmograph. The study was conducted in accordance with “S7A Safety Pharmacology Studies for Human Pharmaceuticals, ICH” issued July 2001. The study used a parallel design with one vehicle and three test item treated groups. […] Male Wistar rats were placed in plethysmography chambers and baseline respiratory parameters were recorded for 30 minutes. Following drug administration respiratory parameters were recorded continuously for 3 hours.

[12] = Cardiovascular parameters in telemetered dogs; format: in vivo; conditions: male Beagle dogs
Experimental: The study was conducted in accordance with ICH “S7A Safety Pharmacology Studies for Human Pharmaceuticals, Note for Guidance on Safety Pharmacology Studies for Human Pharmaceuticals, July 2001”. The doses tested were 0, 15, 30 and 60 mg/kg b.wt. given orally by gelatin capsule. Four male Beagle dogs, each implanted with a TL1IM2-D70-PCT transmitter (Data Sciences International, USA), were used for the study. During the study, the dogs were administered 4 oral treatments representing placebo and all test substance treatment groups with a three day (˜72 hour) wash-out period between each administration, using a Latin square cross-over design.
On dosing days, the telemetered dogs were observed once before commencement of data collection, continuously through 2 hours post-dose remotely and ˜8 hours post-dose for changes in behaviour. Cardiovascular parameters (systolic, diastolic and mean blood pressure, pulse pressure and heart rate) were recorded continuously for ˜60 minutes before dosing and up to 24 hours after dosing. Systolic, diastolic and mean blood pressures, pulse pressure and heart rate were obtained from the femoral artery waveform. Electrocardiograms were recorded continuously for ˜60 minutes before dosing and up to 24 hours after dosing. […] Heart rate and QT intervals were determined from the ECG's.

in vivo [13] = conditions: both, Swiss albino, mouse, po; remark: listed apart in the source
Experimental: as §3

[14] = Acute oral gavage toxicity (MTD); conditions: G4, 1000 mg/kg body wt., rats

ERBB4, sequence (Q15303 26-1308): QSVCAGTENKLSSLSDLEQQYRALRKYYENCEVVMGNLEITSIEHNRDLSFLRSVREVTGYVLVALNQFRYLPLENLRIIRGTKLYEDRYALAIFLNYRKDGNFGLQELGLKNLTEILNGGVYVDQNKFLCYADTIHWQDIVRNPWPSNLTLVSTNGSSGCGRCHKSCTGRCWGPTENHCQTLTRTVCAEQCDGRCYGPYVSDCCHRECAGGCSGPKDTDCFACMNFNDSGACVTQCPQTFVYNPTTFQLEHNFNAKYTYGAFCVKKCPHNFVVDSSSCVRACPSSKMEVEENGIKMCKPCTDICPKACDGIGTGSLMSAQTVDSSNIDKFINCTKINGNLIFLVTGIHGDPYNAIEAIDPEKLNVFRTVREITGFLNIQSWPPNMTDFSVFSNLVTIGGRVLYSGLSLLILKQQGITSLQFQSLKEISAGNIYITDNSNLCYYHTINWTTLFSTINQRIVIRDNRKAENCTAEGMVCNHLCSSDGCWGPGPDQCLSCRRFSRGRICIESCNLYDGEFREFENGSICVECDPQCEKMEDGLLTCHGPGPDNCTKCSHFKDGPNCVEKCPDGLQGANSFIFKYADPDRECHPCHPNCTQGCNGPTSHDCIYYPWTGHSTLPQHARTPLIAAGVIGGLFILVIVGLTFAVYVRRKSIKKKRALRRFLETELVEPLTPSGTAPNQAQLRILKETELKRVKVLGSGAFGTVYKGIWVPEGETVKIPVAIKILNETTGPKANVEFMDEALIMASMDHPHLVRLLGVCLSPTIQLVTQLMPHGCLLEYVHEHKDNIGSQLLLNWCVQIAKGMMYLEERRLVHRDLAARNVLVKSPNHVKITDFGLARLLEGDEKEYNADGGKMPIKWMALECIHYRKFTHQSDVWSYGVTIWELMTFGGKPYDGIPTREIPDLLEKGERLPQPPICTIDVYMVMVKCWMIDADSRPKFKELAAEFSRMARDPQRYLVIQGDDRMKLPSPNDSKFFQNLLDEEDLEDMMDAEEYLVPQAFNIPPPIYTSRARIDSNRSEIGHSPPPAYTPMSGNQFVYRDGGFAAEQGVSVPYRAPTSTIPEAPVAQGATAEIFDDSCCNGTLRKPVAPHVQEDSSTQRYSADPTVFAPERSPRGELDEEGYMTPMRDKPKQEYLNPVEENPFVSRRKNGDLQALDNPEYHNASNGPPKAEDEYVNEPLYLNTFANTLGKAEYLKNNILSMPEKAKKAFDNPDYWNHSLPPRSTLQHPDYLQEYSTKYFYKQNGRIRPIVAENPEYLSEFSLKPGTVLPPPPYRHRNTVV
ERBB2, sequence (P04626 23-1255): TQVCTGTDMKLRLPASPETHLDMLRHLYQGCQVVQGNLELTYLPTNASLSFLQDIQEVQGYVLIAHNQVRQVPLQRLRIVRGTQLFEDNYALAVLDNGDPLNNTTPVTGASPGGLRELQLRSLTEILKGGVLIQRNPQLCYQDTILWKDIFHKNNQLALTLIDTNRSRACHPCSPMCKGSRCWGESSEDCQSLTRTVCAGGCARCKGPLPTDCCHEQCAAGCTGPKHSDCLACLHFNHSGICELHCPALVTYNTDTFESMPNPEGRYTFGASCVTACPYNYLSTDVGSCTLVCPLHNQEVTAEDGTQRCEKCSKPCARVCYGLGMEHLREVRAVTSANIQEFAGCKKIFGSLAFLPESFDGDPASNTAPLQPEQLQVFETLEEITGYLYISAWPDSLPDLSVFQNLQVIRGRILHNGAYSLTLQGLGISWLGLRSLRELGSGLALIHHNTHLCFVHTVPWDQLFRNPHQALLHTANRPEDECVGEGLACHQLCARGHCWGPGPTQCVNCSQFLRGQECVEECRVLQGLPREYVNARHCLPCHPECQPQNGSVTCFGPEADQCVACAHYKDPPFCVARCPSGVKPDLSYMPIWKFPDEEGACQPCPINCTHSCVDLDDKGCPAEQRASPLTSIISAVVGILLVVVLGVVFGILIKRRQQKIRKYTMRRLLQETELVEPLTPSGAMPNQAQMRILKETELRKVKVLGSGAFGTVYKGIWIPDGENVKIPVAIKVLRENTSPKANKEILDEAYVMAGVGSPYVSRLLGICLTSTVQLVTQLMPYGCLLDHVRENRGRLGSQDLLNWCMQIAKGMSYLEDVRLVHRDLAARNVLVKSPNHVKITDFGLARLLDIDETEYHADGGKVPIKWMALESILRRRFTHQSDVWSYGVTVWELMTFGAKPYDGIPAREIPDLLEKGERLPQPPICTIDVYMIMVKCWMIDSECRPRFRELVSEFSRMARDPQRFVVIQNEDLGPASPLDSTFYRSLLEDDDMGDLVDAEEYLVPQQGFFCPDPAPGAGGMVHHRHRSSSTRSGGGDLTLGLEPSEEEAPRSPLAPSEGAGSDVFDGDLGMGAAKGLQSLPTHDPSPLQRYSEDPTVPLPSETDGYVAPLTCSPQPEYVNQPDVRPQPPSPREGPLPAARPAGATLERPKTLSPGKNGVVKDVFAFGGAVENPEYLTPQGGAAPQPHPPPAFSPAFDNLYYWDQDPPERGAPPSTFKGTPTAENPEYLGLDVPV
Experimental for A549 and H1299 cells: Solubilization of the cells by the addition of a detergent results in the liberation of the crystals, which are solubilized. The number of surviving cells is directly proportional to the level of the formazan product created. The color can then be quantified using a simple colorimetric assay. This assay was done using 0-1000 ng/ml concentrations of Erlotinib and the test compounds in A549 and H1299 cells.

SMILES: C#Cc1cccc(Nc2ncnc3cc(OCCOC)c(OCCOC)cc23)c1 [Erlotinib HCl, N-(3-Ethylnylphenyl)-6,7-bis(2-methoxyethoxy)-4-quinazolinamine]
- LD50 at 14 days ([1]; both sexes, mouse, in vivo): 805 mg/kg
- LD0 ([1]; no mortality at end of 7 days): 500 mg/kg
- invasion (H1299 and A549 cells): dose dependent decrease in invasion
- tumor regression (A549 human lung tumors): tumors were still present
- residual tumors in harvested lungs [2]: tumors were still present
- tumors at the end of 42 days treatment [3]: residual tumors were still present
- VEGFR levels (VEGFR): no such indication was seen
- NOAEL at 30 days [4]: 5 mg/kg/day
- MTD [5]: 500 mg/kg
- IC50 (A549 and H1299 cells): 0.836 µg/mL
- MTD at 72 h (in vivo [6]): 500 mg/kg
- MTD at 14 days ([7]; both, Swiss albino, mouse, in vivo, po): 500 mg/kg
- Erb B2 levels (ERBB2): no such indication was seen
- Erb B4 levels (ERBB4): no such indication was seen

SMILES: C#Cc1cccc(Nc2ncnc3cc(OC)c(OCCCN4CCOCC4)cc23)c1.Cl [NRC-2694 monohydrochloride, N-(3-ethynylphenyl)-7-methoxy-6-[3-(4-morpholinyl)propoxy]-4-quinazolinamine mono hydrochloride]
- NOAEL at 30 days [4]: 10 mg/kg/day
- Tmax ([8]; day 1, female, 10 mg/kg): 2 h
- Tmax ([8]; day 1, female, 40 mg/kg): 4 h
- Tmax ([8]; day 1, male, 10 mg/kg): 2 h
- Tmax ([8]; day 1, male, 20 mg/kg): 3 h
- Tmax ([8]; day 1, male, 40 mg/kg): 2 h
- Tmax ([8]; day 30, female, 20 mg/kg): 4 h
- Cmax ([8]; three dose levels, male and female dogs): dose-dependent change in the Cmax
- mutagenicity (His revertant colonies) [9]: non-mutagenic
- functional observational battery [10]: did not show any adverse effects at the tested doses
- respiratory rate, tidal volume, minute volume, and Penh [11]: did not influence any of the observed parameters
- cardiovascular parameters (blood pressure, pulse pressure, heart rate, QT, QTcf) ([12]; 15, 30 and 60 mg/kg b.wt. oral): no significant negative effects on cardiovascular parameters
- no observed effect level ([12]; cardiovascular parameters, oral): 60 mg/kg b.wt.
- MTD at 14 days (in vivo [13]): 1000 mg/kg
- toxic signs or mortality ([7]; 250 mg/kg and 500 mg/kg, oral gavage, mice): did not produce any toxic signs or mortality
- chromodacryoorhea (animals affected) [14]: 10/10
- mild to severe lethargy (animals affected) [14]: 10/10
- piloerection (animals affected) [14]: 10/10
- ptosis (animals affected) [14]: 4/10
- weakness (animals affected) [14]: 1/10
